Data from US10765114B2, “4-amino-6-(pyridyl and 2-substitutedphenyl)-picolinates and 6-amino-2-(pyridyl and 2-substitutedphenyl)-pyrimidine-4-carboxylates and their use as herbicides” (Dow AgroSciences LLC, priority 2013, dated 2020).

Legend:
[1] = test system: AMARE: redroot pigwseed (Amaranthus retroflexus); test: Pre-Emergent Test I; format: in vivo; conditions: preemergence
Procedure: (§1) Pre-Emergent Test I Seeds of test species were planted into round plastic pots (5-inch diameter) containing sandy loam soil. After planting, all pots were sub-irrigated 16 h prior to compound application. Compounds were dissolved in a 97:3 v/v mixture of acetone and DMSO and diluted to the appropriate concentration in a final application solution containing water, acetone, isopropanol, DMSO and Agri-dex (crop oil concentrate) in a 59:23:15:1.0:1.5 v/v ratio and 0.02% w/v (weight/volume) of Triton X-155 to obtain the spray solution containing the highest application rate. Additional application rates were obtained by serial dilution of the high rate solution with the above application solution Formulated compound (2.7 mL) was pipetted evenly over the soil surface followed by incorporation with water (15 mL). Following treatment, pots were returned to the greenhouse for the duration of the experiment. The greenhouse was programmed for an approximate 15 h photoperiod which was maintained at about 23-29° C. during the day and 22-28° C. during the night. Nutrients and water were added on a regular basis through surface irrigation and supplemental lighting was provided with overhead metal halide 1000-Watt lamps as necessary. Herbicidal effect ratings were obtained 14 days after treatment. All evaluations were made relative to appropriate controls on a scale of 0 to 100 where 0 represents no herbicidal effect and 100 represents plant death or lack of emergence from the soil and presented in Table A. Some of the compounds tested, application rates employed, plant species tested, and results are given in Table 4.

[2] = test system: AVEFA: wild oats (Avena fatua); test: Pre-Emergent Test I; format: in vivo; conditions: preemergence
Procedure: as §1

[3] = test system: ECHSS (ECHCG: barnyardgrass (Echinochloa crus-galli)); test: Pre-Emergent Test I; format: in vivo; conditions: preemergence
Procedure: as §1

[4] = test system: HELAN: sunflower (Helianthus annuus); test: Pre-Emergent Test I; format: in vivo; conditions: preemergence
Procedure: as §1

[5] = test system: IPOSS (IPOHE: ivyleaf morningglory (Ipomoea hederecea)); test: Pre-Emergent Test I; format: in vivo; conditions: preemergence
Procedure: as §1

[6] = test system: SETFA: giant foxtail (Setaria faberi); test: Pre-Emergent Test I; format: in vivo; conditions: preemergence
Procedure: as §1

BROTE (downy brome) = test: Post-Emergent Test III (Wheat and Barley); format: in vivo, Bromus tectorum; conditions: for Visual Growth Reduction (%) 21 Days After Application, BROTE: postemergence; for GR50, BROTE: effective dose for growth reduction of 50 percent; for GR50, BROTE / GR80, BROTE / GR90, BROTE: probit analysis; for GR80, BROTE: effective dose for growth reduction of 80 percent; for GR90, BROTE: effective dose for growth reduction of 90 percent
Procedure: Seeds of the desired test plant species were planted in Sun Gro MetroMix® 306 planting mixture, which typically has a pH of 6.0 to 6.8 and an organic matter content of about 30 percent, in plastic pots with a surface area of 103.2 square centimeters (cm^2). When required to ensure good germination and healthy plants, a fungicide treatment and/or other chemical or physical treatment was applied. The plants were grown for 7-36 days in a greenhouse with an approximate 14 h photoperiod which was maintained at about 18° C. during the day and 17° C. during the night. Nutrients and water were added on a regular basis and supplemental lighting was provided with overhead metal halide 1000-Watt lamps as necessary. The plants were employed for testing when they reached the second or third true leaf stage.
A weighed amount, determined by the highest rate to be tested, of each test compound was placed in a 25 mL glass vial and was dissolved in 4 mL of a 97:3 v/v mixture of acetone and DMSO to obtain concentrated stock solutions. […] The concentrated stock solutions obtained were diluted with 20 mL of an aqueous mixture containing acetone, water, isopropyl alcohol, DMSO, Agri-Dex crop oil concentrate, and X-77 surfactant in a 48:39:10:1.5:1.5:0.02 v/v ratio to obtain spray solutions containing the highest application rates. Additional application rates were obtained by serial dilution of 12 mL of the high rate solution into a solution containing 2 mL of 97:3 v/v mixture of acetone and DMSO and 10 mL of an aqueous mixture containing acetone, water, isopropyl alcohol, DMSO, Agri-Dex crop oil concentrate, and X-77 surfactant in a 48:39:10:1.5:1.5:0.02 v/v ratio to obtain ½×, ¼×, ⅛× and 1/16× rates of the high rate. Compound requirements are based upon a 12 mL application volume at a rate of 187 liters per hectare (L/ha). Formulated compounds were applied to the plant material with an overhead Mandel track sprayer equipped with 8002E nozzles calibrated to deliver 187 L/ha over an application area of 0.503 square meters at a spray height of 18 inches (43 cm) above the average plant canopy height. Control plants were sprayed in the same manner with the solvent blank.
The treated plants and control plants were placed in a greenhouse as described above and watered by subirrigation to prevent wash-off of the test compounds. After 21 dAYS, the condition of the test plants as compared with that of the untreated plants was determined visually and scored on a scale of 0 to 100 percent where 0 corresponds to no injury and 100 corresponds to complete kill and presented as indicated in Table A.
By applying the well-accepted probit analysis as described by J. Berkson in Journal of the American Statistical Society, 48, 565 (1953) and by D. Finney in “Probit Analysis” Cambridge University Press (1952), herbicidal injury of a specific compound at various rates can be used to calculate GR10, GR20, GR50, GR80 and GR90 values, which are defined as growth reduction factors that correspond to the effective dose of herbicide required to provide plant growth reduction (GR) of 10 percent, 20 percent, 50 percent, 80 percent and 90 percent, respectively. Probit analysis was applied to data collected from multiple dose rates of individual compounds utilizing the procedures explained in the following examples. The analysis of those dose rates is captured in the following tables.

Structure (SMILES)	Visual Growth Reduction (%) 21 Days After Application, BROTE (BROTE (downy brome); 35 g ai/ha)	Visual Growth Reduction (%) 21 Days After Application, BROTE (BROTE (downy brome); 70 g ai/ha)	Visual Growth Reduction (%) 21 Days After Application, BROTE (BROTE (downy brome); 140 g ai/ha)	GR50, BROTE (BROTE (downy brome))	GR80, BROTE (BROTE (downy brome))	GR90, BROTE (BROTE (downy brome))	further results
COC(=O)c1nc(-c2ccc(C(F)(F)F)nc2)cc(N)c1Cl [Compound 4]							Visual Growth Reduction (%) 14 Days After Application, AMARE ([1]; 4 kg ai/ha): D (60-74); Visual Growth Reduction (%) 14 Days After Application, AVEFA ([2]; 4 kg ai/ha): G (0-29); Visual Growth Reduction (%) 14 Days After Application, ECHSS ([3]; 4 kg ai/ha): F (30-44); Visual Growth Reduction (%) 14 Days After Application, HELAN ([4]; 4 kg ai/ha): G (0-29); Visual Growth Reduction (%) 14 Days After Application, IPOSS ([5]; 4 kg ai/ha): G (0-29); Visual Growth Reduction (%) 14 Days After Application, SETFA ([6]; 4 kg ai/ha): F (30-44)
COC(=O)c1nc(-c2ccc(Cl)nc2F)cc(N)c1Cl [Compound 17, methyl 4-amino-5,6′-dichloro-2′-fluoro-[2,3′-bipyridine]-6-carboxylate]							Visual Growth Reduction (%) 14 Days After Application, AMARE ([1]; 3.8 kg ai/ha): A (95-100); Visual Growth Reduction (%) 14 Days After Application, AVEFA ([2]; 3.8 kg ai/ha): G (0-29); Visual Growth Reduction (%) 14 Days After Application, ECHSS ([3]; 3.8 kg ai/ha): F (30-44); Visual Growth Reduction (%) 14 Days After Application, HELAN ([4]; 3.8 kg ai/ha): A (95-100); Visual Growth Reduction (%) 14 Days After Application, IPOSS ([5]; 3.8 kg ai/ha): A (95-100); Visual Growth Reduction (%) 14 Days After Application, SETFA ([6]; 3.8 kg ai/ha): G (0-29)
Nc1c(F)c(-c2ccc(C(F)(F)F)nc2)nc(C(=O)O)c1Cl [Compound 46, 4-amino-5-chloro-3-fluoro-6′-(trifluoromethyl)-[2,3′-bipyridine]-6-carboxylic acid]	E (45-59)	D (60-74)	B (85-94)	42 g ai/ha	93 g ai/ha	140 g ai/ha	
COC(=O)c1nc(-c2ccc(Cl)c(F)c2C)cc(N)c1Cl [Compound 73]	E (45-59)	D (60-74)	D (60-74)	59 g ai/ha	>140 g ai/ha	>140 g ai/ha	
Cc1c(-c2cc(N)c(Cl)c(C(=O)O)n2)ccc(Cl)c1F [Compound 52]	G (0-29)	F (30-44)	D (60-74)	98 g ai/ha	>140 g ai/ha	>140 g ai/ha	
